Results as given in patent USRE38506E1, “Potent inducers of terminal differentiation and methods of use thereof” (Sloan-Kettering Institute for Cancer Research, priority 1991, dated 2004).

System: MELC 745A-DS19 cells
Assay: Induction of terminal differentiation of murine erythroleukemia cells (benzidine reactivity)
Type: cell-based
Conditions: for Benzidine Reactive Cells: at optimal concentration; for Optimal Conc.: Table 1
Experimental: MELC 745A-DS19 cells and the variants of MELC derived from this cell line, namely, the vincristine-resistant MELC V3.17 and VCR.C(2)15 cell lines (26), and the dimethylsulfoxide-resistant cell line, DR10 (39), were maintained in alpha minimal essential medium containing 10% fetal calf serum (16). Cell cultures for all experiments were initiated with cells in logarithmic growth phase (day 2 cultured cells) at a density of 10^5 cells/ml. Inducer compounds were added in the final concentrations indicated below, dissolved in culture medium without fetal calf serum unless otherwise indicated. Cell density and benzidine reactively were determined as described (16).
Commitment to terminal differentiation, characterized by limited cell division (colony size<32 cells) and accumulation of hemoglobin (benzidine reactive colonies) was assayed by a colony cloning assay using 2% methylcellulose as described (25) (see Table 1 for results). HL-60 human leukemia cells, derived from peripheral blood leukocytes of a patient with acute promyelocytic leukemia (40). Induced differentiation of HL-60 cells assayed by determining the proportion of cells that developed the capacity to reduce nitroblue tetrazolium (NBT) (41) (see Table 2 for results).

SMILES | Benzidine Reactive Cells [%] | Optimal Conc. [µM]
CN(C(=O)CCCCCCC(=O)NO)c1ccccc1 [compound 54] | 40 | 
O=C(CCCCCCC(=O)Nc1c(F)cc(F)cc1F)Nc1c(F)cc(F)cc1F [compound 63] | 35 | 125
COc1cccc(NC(=O)CCCCCCC(=O)NO)c1 [compound 52] | 38 | 6
O=C(CCCCCCC(=O)Nc1cccc(F)c1F)NO [compound 41] | 24 | 8
COc1ccc(NC(=O)CCCCCCC(=O)NO)cc1 [compound 53] | 37 | 6
O=C(O)CCCCCCC(=O)NO [compound 12] | 35 | 
O=C(CCCCCCC(=O)Nc1ccccc1Cl)NO [compound 39] | 34 | 4
O=C(CCCCCCC(=O)Nc1cccc(F)c1)NO [compound 33] | 25 | 1
O=C(CCCCCCC(=O)Nc1ccc(F)cc1F)Nc1ccc(F)cc1F [compound 59] | 54 | 500
O=C(CCC(F)(F)CCC(=O)NO)NO [compound 70] | 19 | 
O=C(CCCCCCCC(=O)Nc1ccccc1)NO [compound 4] | 8 | 20
O=C(CCCCCCC(=O)Nc1cccc(Cl)c1)NO [compound 30] | 33 | 2
O=C(CCCCCCC(=O)Nc1cccc([N+](=O)[O-])c1)NO [compound 24] | 30 | 5
O=C(CCCCCCC(=O)Nc1ccc(F)cc1F)NO [compound 45] | 60 | 6
CC(C)(C)ONC(=O)CCCCCCC(=O)NO [compound 18] | 38 | 
N#CCc1ccc(NC(=O)CCCCCCC(=O)Nc2ccc(CC#N)cc2)cc1 [compound 58] | 25 | 50
Nc1ccccc1NC(=O)CCCCCCC(=O)NO [compound 28] | 54 | 20
O=C(CCCCCCC(=O)Nc1c(F)cccc1F)Nc1c(F)cccc1F [compound 60] | 21 | 100
O=C(CCCCCCC(=O)Nc1cc(F)c(F)cc1F)NO [compound 42] | 36 | 8
COC(=O)CCCCCCC(=O)NO [compound 13] | 17 | 
O=C(CCCCCCC(=O)Nc1ccc(F)cc1)NO [compound 34] | 43 | 4
O=C(O)CCCCCCC(=O)NC1CCCCC1 [compound 9] | 20 | 
O=C(CCCCCCC(=O)Nc1ccc(OCc2ccccc2)cc1)NO [compound 35] | 20 | 4
O=C(CCCCCCC(=O)N1CCCCC1)NO [compound 17] | 30 | 
O=C(CCCCCCC(=O)Nc1c(F)c(F)c(F)c(F)c1F)Nc1c(F)c(F)c(F)c(F)c1F [compound 64] | 13 | 125
CC(CCC(=O)NO)CCC(=O)NO [compound 68] | 56 | 
N#Cc1ccccc1NC(=O)CCCCCCC(=O)NO [compound 23] | 65 | 16
